Laboratory results published in PMC5851003 (ACS nano, 2018).

Experiments:
[1] = target: CXCR-4 receptor (Homo sapiens, UniProt P61073); assay type: binding; conditions: A549 cells
[2] = target: human α4β2 nicotinic acetylcholine receptor (nAChR) (Homo sapiens, UniProt P17787+P43681); assay type: binding; conditions: SH-EP1-α4β2 cells
Sequence of human α4β2 nicotinic acetylcholine receptor (nAChR) (P43681 29-627 limits assumed): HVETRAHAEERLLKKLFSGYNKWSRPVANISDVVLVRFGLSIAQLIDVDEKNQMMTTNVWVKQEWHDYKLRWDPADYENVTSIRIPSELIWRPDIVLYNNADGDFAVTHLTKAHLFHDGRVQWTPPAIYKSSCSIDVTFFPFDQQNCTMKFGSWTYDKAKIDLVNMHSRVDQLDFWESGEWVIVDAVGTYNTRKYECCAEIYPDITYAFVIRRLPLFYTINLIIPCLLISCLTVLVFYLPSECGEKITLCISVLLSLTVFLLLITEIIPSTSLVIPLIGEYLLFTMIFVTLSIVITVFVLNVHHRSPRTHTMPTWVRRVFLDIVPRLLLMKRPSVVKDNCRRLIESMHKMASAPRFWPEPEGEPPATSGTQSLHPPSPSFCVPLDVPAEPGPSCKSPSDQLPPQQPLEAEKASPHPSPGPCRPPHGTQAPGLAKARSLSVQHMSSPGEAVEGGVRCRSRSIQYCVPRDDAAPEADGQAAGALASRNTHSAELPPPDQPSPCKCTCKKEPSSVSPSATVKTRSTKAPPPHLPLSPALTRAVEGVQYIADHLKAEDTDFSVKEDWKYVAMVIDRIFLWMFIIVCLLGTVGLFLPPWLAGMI
Sequence of human α4β2 nicotinic acetylcholine receptor (nAChR) (P17787 26-502): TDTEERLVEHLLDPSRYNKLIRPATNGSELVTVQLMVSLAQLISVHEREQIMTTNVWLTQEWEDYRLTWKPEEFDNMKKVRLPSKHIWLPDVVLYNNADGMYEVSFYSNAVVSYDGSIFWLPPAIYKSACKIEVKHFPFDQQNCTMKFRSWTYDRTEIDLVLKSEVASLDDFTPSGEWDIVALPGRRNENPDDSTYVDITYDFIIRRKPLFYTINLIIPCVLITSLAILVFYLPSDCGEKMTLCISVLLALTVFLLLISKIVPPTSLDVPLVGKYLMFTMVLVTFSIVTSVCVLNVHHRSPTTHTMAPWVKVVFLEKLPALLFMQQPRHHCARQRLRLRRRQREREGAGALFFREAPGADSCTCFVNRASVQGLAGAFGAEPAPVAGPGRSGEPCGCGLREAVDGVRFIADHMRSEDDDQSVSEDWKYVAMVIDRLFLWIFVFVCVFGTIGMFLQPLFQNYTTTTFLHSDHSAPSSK

Sequence of CXCR-4 receptor (P61073 whole entry): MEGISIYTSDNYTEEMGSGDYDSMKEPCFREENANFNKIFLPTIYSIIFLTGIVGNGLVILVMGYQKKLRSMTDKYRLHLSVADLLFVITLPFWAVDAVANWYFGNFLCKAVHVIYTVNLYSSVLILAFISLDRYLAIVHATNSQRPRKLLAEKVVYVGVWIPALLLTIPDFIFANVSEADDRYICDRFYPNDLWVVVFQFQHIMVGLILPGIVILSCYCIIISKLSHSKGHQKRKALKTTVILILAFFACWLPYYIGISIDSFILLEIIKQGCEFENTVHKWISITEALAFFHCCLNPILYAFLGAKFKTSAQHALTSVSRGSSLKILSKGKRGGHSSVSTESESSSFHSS

Row | binding induced membrane deformation, maximum value [1] | SMILES | maximum membrane deformation [2]
1 | 46 nm | c1cc(CN2CCCNCCNCCCNCC2)ccc1CN1CCCNCCNCCCNCC1 [AMD3100] | 
2 |  | CC(=O)OCC[N+](C)(C)C [acetylcholine] | around 70 nm
